Patent publication US20080032959A1, “Estrogen Receptor Modulators” (priority 2004, published 2008)

Experiments:
Assay type in all cases: in vivo, mouse
[1] = tested on: PR immunoreactive cells in the hippocampus; assay: Murine brain PR ICC assay, hippocampus (PR regulated exclusively by ERα); details: 3 days
Experimental: (§1) Animals (n=5/group) were treated for 3 days and brains and uteri were collected 24 hours after the last treatment and processed for immunohistochemistry.
(§2) Female mice (12-16 wks of age) are ovariectomized by the vendor (C57BL/6s from Charles River) and shipped one week later. Animals are fed a soy-free rodent chow upon arrival at the Merck animal facility, where they are given an additional week to adjust to the new environment. […] Approximately 24 hours after the last dose, animals are deeply anesthetized with ketamine/xylazine and are transcardially perfused with 50 ml of 3.5% acrolein and 2% paraformaldehyde in 0.1 M sodium phosphate buffer (PB), pH 7.4. Brains are immediately removed and placed into ice cold 0.1 M PB and stored at 4 C overnight. Brains are sectioned at 40 μm on a vibrating microtome in 0.1M PB, transferred into cryoprotectant (30% sucrose; 30% ethylene glycol in 0.1 M PB, pH 7.4) and stored at −20° C. until processing for immunocytochemistry.
Free floating 40 μm sections are washed in cold 0.1 M phosphate buffered saline (PBS), pH 7.4, to thoroughly remove cryoprotectant. To insure consistent immunolabeling across animals, a screen-bottom 24-well tissue holder and fitted solid lucite tray containing buffer is used to conduct the experiment. Thus, all sections are co-incubated in the same solutions/conditions during the entire experiment. […]

[2] = tested on: Progesterone receptor (PR) protein in the dorsal raphe nucleus; assay: Murine brain progestin receptor (PR) ICC assay, dorsal raphe nucleus; details: for PR induction in the dorsal raphe nucleus: βERKO mouse lacking functional ERβ, treated 3 days, E2 0.2 mg/kg, A 5 or 10 mg/kg, immunohistochemistry 24 h after last treatment
Experimental: as §1, §2
Free floating 40 μm sections are washed in cold 0.1 M phosphate buffered saline (PBS), pH 7.4, to thoroughly remove cryoprotectant. To insure consistent immunolabeling across animals, a screen-bottom 24-well tissue holder and fitted solid lucite tray containing buffer is used to conduct the experiment. Thus, all sections are co-incubated in the same solutions/conditions during the entire experiment. To deter non-specific staining in acrolein-fixed tissue, sections are washed in 1% sodium borohydride (NaBH4) in PBS for 30 minutes and rinsed 8 to 10 times with PBS. Endogenous peroxidase activity is inhibited by washing tissue in 0.3% hydrogen peroxide and 10% methanol in PBS for 15 minutes. Sections are washed in PBS and blocked in either 1) 2% normal goat serum in PBS with 0.05% Triton X-100 (PBST) for one hour, or 2) a mouse-on-mouse Ig blocking reagent (Vector) for 1 hour followed by a mouse protein concentrate (Vector) for 30 min. Sections are incubated with PR antibody in blocking buffer diluted to 1% normal serum over one night at RT and one night at 4 C, or three nights at 4 C. […]

[3] = tested on: wild type and estrogen receptor beta knockout (βERKO) mice; assay: Uterine weights after 3 days of treatment; details: treated 3 days, E2 0.2 mg/kg, A 5 or 10 mg/kg, uteri collected 24 hrs after last treatment
Experimental: Animals (n=5/group) were treated for 3 days and brain and uteri were collected 24 hrs after last treatment.

Row | Structure (SMILES) | PR immunoreactive cells in the hippocampus ([1]; 5 mg/kg) | PR immunoreactive cells in the hippocampus ([1]; high dose 10 mg/kg) | ER-beta activity in brain ([2]; at the doses tested (A 5 or 10 mg/kg), 3 days) | PR induction in the dorsal raphe nucleus [2] | uterine weight [3]
1 | C[C@]12CC[C@H]3[C@@H](CC=C4C[C@@H](O)CC[C@@]43C)[C@@H]1CC[C@@H]2O [A, delta-5-androstene-3-beta-17-beta-diol] | no PR immunoreactivity | just an occasional, lightly-stained cell | full ER-beta activity in brain | complete loss of PR induction | only a modest effect
2 | C[C@]12CC[C@@H]3c4ccc(O)cc4CC[C@H]3[C@@H]1CC[C@@H]2O [E2, 17β-estradiol, reference compound] |  |  |  | attenuation of PR induction | robustly increased uterine weight
